In US20230190866A1, “PEPTIDE FOR THE TREATMENT OF CYTOKINE STORM SYNDROME” (priority 2020, published 2023) one finds serious adverse events, tolerability and symptoms of immunosuppression data, which are given here for one sequence.

Ends that are not written are not given here.

For data set [1] the following is noted: patients, pharmaceutical composition. An excerpt:
The peptide identified as SEQ ID NO: 1 is obtained by chemical synthesis. Through experiments such as those described in the present invention, those immunological mechanisms induced by the peptide that contribute in the control of hyperinflammation can be evaluated.

Data set [2] concerns acute respiratory distress syndrome in patients with Covid-19. The conditions noted are these: ten treated Covid-19 patients.

For the sequence “SIDLKDKYKNIGAKLVQLVANNTNEEA [peptide identified as SEQ ID NO: 1]”, in data set [1], the serious adverse events entry is on record as “No serious adverse events were identified” and the tolerability entry is given as “well tolerated”. Besides, the symptoms of immunosuppression result in data set [2] was “did not present any symptoms of immunosuppression”.
